# According to patent US9827223B2 (priority 2001, dated 2017):
# Like-named read-outs stand apart in the source and are kept apart here.
# Experiments:
# dorsal root ganglion = test system: dorsal root ganglion; design: species or system patient; conditions: human, in vivo
# VR1eGFP [1] = target: T1, VR1eGFP (Rattus norvegicus, UniProt O35433); type: cell-based; conditions: 1 nM
# T1 construct: expressed in transfected cells; host or cells: Cos7 and HEK293 cells, transient transfection
# [2] = rat, in vivo, cited from earlier work
# trigeminal ganglion [3] = type: in vivo, Sprague Dawley rats
# [4] = design: species or system Sprague Dawley rats; conditions: rat, in vivo
# [5] = design: species or system Sprague Dawley rats; conditions: rat, in vivo; remark: listed apart in the source
# trigeminal ganglion [6] = test system: trigeminal ganglion; design: species or system Sprague Dawley rats; conditions: rat, in vivo
# VR1eGFP-expressing cells = type: cell-based
# [7] = target: T2, VR1ε (C-terminal epsilon epitope-tagged vanilloid 1 receptor) (Rattus norvegicus, UniProt O35433); type: cell-based
# T2 construct: expressed in transfected cells; host or cells: NIH 3T3 cells, G418-selected colony A5, pMTH-VR1ε plasmid
# [8] = test system: C-fiber neurons of the trigeminal ganglion; design: species or system Sprague Dawley rats; conditions: rat, in vivo
# VR1eGFP [9] = target: T1, VR1eGFP; assay: cell-based; conditions: N=3; read-out: ED50 of induced Ca2+ uptake
# VR1eGFP [10] = target: T1, VR1eGFP; type: cell-based
# eGFP- and e-tagged VR1 = target: T3, eGFP- and e-tagged VR1 (Rattus norvegicus, UniProt O35433); type: binding
# T3 construct: expressed in transfected cells; host or cells: Cos7 cells
# T3 sequence (O35433 whole entry): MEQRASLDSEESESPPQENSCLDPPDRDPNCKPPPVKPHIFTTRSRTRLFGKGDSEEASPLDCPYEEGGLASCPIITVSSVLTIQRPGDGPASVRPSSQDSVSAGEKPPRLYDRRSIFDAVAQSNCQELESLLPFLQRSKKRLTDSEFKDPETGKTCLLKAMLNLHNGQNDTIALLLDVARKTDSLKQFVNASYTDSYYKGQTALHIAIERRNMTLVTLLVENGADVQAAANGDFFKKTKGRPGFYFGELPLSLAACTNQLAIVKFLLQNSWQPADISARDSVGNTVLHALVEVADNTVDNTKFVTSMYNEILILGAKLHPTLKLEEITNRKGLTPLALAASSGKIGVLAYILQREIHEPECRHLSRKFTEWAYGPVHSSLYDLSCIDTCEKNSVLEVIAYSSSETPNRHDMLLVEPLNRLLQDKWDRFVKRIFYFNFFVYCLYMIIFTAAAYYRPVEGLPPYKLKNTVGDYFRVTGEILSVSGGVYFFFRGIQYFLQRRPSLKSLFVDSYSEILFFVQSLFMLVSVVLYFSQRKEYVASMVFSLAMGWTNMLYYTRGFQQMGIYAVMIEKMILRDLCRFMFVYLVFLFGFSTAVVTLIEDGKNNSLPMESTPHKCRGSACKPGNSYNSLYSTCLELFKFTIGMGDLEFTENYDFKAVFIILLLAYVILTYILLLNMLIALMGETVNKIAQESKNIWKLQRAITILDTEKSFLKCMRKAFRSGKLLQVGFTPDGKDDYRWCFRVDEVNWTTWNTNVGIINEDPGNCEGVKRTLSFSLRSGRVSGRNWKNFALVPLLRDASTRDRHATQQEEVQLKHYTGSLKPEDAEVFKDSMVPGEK
# T1 sequence (O35433 whole entry): as above
# T2 sequence (O35433 whole entry): as above
compound,measurement,setting,value
"C=C(C)[C@]12C[C@@H](C)[C@@]34O[C@](Cc5ccccc5)(O[C@@H]1[C@@H]3C=C(COC(=O)Cc1ccc(O)c(OC)c1)C[C@]1(O)C(=O)C(C)=C[C@@H]41)O2 [RTX, Resiniferatoxin]",symptoms of chronic pain,dorsal root ganglion,reduction of the symptoms of chronic pain
same,peak [Ca2+]i,VR1eGFP [1],500 nM
same,time to elevation of [Ca2+]i,VR1eGFP [1],≤ 10 s
same,time without restoration of pain sensitivity (thermal analgesia),[2]; sc,over 7 days
same,eye wipes in the first minute,trigeminal ganglion [3]; n=4,7±3 wipes
same,eye wipes in the first minute,"trigeminal ganglion [3]; rat, in vivo",no eye wipes
same,paw withdrawal latency,[4],18 ± 1.2 s
same,mechanical pinch sensitivity,[5],No attenuation
same,plasma extravasation,trigeminal ganglion [6],dramatic blockade
same,"ER, plasma membrane and mitochondria morphology",VR1eGFP-expressing cells,dramatic fragmentation of the ER
same,nuclear membrane fragmentation at lower doses,VR1eGFP-expressing cells,slower nuclear membrane fragmentation
same,mitochondrial reaction,VR1eGFP-expressing cells; 1 nM,mitochondria reacted rapidly
same,time to bursting of the plasma membrane,VR1eGFP-expressing cells; 1 nM,about 45 minutes
same,45Ca2+-uptake above the base line of non-transfected NIH3T3 cells,[7],> 50 fold
same,fate of CGRP-stained cells in the injected ganglion,[8],killed
same,EC50,VR1eGFP [9],0.1 ± 0.05 nM
same,currents and capacitance change in non-transfected cells,VR1eGFP [10],neither evoked currents nor induced a change in capacitance
same,loss of plasma membrane,VR1eGFP [10],about 600 μm^2
same,receptor desensitization,VR1eGFP [10],complete desensitization
same,drop of membrane capacitance of VR1eGFP-transfected cells,VR1eGFP [10]; 125 pM,6±2.5 pF
COc1cc(CNC(=O)CCCC/C=C/C(C)C)ccc1O [capsaicin],thermal analgesia,[2],No thermal analgesia
same,mitochondrial reaction,VR1eGFP-expressing cells; 1 uM,mitochondria reacted rapidly
same,current induced in voltage-clamped VR1eGFP cells,VR1eGFP [10],induced a large inward current
Oc1cc2c(cc1O)CN(C(=S)NCCc1ccc(Cl)cc1)CCC2 [capsazepine],inhibition of [3H]RTX binding,eGFP- and e-tagged VR1,almost completely inhibited
same,effect on VR1eGFP-mediated current,VR1eGFP [10],attenuated
